This data set deals with U87MG cells. Briefly: Cytotoxic experiment, cell viability with tetrazolium salt derivatives. To be noted: 72 hours, free drug 0.01-100 μM, FIG. 5. It is filed as cell-based. As to the method: An experiment is performed to identify cytotoxicity of the manufactured microbubble drug delivery system and the drug delivery system loading the drugs. The experiment is performed after an experimental group manufactured by using the method in Example 1-2 (microbubble drug delivery system loading paclitaxel PTX@MB) and a control group (microbubble without loaded drugs MB) are deaerated to burst bubbles. Each solution is added to U87MG cells to respectively set final concentrations to 10%, 1%, 0.1%, 0.01%, and 0.001% and final concentrations of free paclitaxel are respectively set to 100 μM, 10 μM, 1 μM, 0.1 μM, and 0.01 μM. 5000 cells are grown in each well and cells are cultured for 72 hours. Then, a solution containing a cell culture fluid and tetrazolium salt derivatives are added to measure cell viability and in-vitro cytotoxicity of each material is identified.

On to `CC(=O)O[C@H]1C(=O)[C@@]2(C)[C@H]([C@H](OC(=O)c3ccccc3)[C@]3(O)C[C@H](OC(=O)[C@H](O)[C@@H](NC(=O)c4ccccc4)c4ccccc4)C(C)=C1C3(C)C)[C@]1(OC(C)=O)CO[C@@H]1C[C@@H]2O` [free paclitaxel, Paclitaxel], for which the “concentration at which cytotoxicity is identified” value was “above 1 μM”.

(Values after patent US20240207650A1, “ULTRASOUND-INDUCED MICROBUBBLE DRUG DELIVERY SYSTEM LOADING STABILIZED HYDROPHOBIC DRUG WITH POLYETHYLENE GLYCOL BASED NONIONIC SURFACTANT AND METHOD OF MANUFACTURING THE SAME” (SAHMYOOK UNIVERSITY INDUSTRY-ACADEMIC COOPERATION FOUNDATION, priority 2022, published 2024).)
